Values of other authors, collected in US10875836B2, “Callyspongiolide, analogs thereof and uses thereof” (Purdue Research Foundation, priority 2016, dated 2020).

Columns and labels:
[1] = test system: human Ramos B lymphocytes
[2] = test system: human Jurkat J16 T lymphocytes

Row | Compound | IC50 [1] | IC50 [2] | cytotoxicity (A549 cell line) | cytotoxicity (K562 cell line)
1 | C[C@@H]1C/C=C\C(=O)O[C@H](/C=C/C#C/C=C/C(C)(C)[C@@H](O)c2cccc(O)c2Br)[C@@H](C)/C=C/[C@H](C)C[C@H](OC(N)=O)C1 [callyspongiolide] | 60 nM | 70 nM | – | –
2 | callyazepin | – | – | moderate cytotoxicity | moderate cytotoxicity
